Test [1] has as its system DBA/1J mice with collagen induced arthritis. The experiment in a line: Collagen-induced arthritis in mice. Format: in vivo. The procedure:
The experiment was designed as in reference, J. Experimental Medicine, 162, 637-646 (1985), the disclosure of which is incorporated by reference for the teaching of the experiment.
Male DBA/1J mice with body weight range of 18-22 g, aged 8-10 weeks were immunized with an emulsion equivalent to 200 μg of type II collagen (Elastin products, USA) in Freund's Complete Adjuvant (Sigma, USA), injected intradermally at the base of the tail. The animals were boosted with 200 μg of freshly prepared typeII collagen emulsion emulsified in Freund's Complete Adjuant (Sigma, USA) on day 21. A group of naïve mice was also maintained alongside. Naïve animals are the animals which are neither immunized for induction of arthritis nor do they receive any treatment. This group is maintained to take care of the normal changes in the paw thickness with age.
From day 23, mice were examined daily once for the signs of rheumatoid arthritis, using the articular index and paw thickness as parameters. Articular index scoring was performed employing the following criteria:
• 0: No redness or swelling • 1: Redness, but no swelling • 2: Redness and swelling of the paw • 3: Redness and severe swelling of the paw Hind limbs: Scale 0-4 • 0: No redness or swelling • 1: Redness and mild swelling of paw • 2: Redness and moderate swelling of paw and/or swelling of at least one of the digits • 3: Redness and moderate/severe swelling of paw, swelling of ankle joint and/or swelling of one or more digits • 4: Redness and severe swelling of paw, digits and ankle joint, with joint stiffness Mice with a minimum hind paw score of 2, of even one paw, were inducted into the study. Mice were randomized into the various study groups, each group having at least eight animals, and were administered the vehicle (0.5% CMC, 10 mL/kg p.o. and s.c. twice daily), the test compound (5 mg/kg, p.o. and s.c., twice daily) and standard compound Enbrel (Wyeth Limited, UK), 3 mg/kg, s.c., once daily. The test compound was administered as a suspension in CMC. The requisite quantity of the compound was accurately weighed and was hand-pulverized using pestle-mortar. After mixing with minimum quantity of Tween 80 necessary to wet the compound, requisite quantity of 0.5% CMC solution was added and the compound was ground with CMC till the uniform suspension was obtained. Standard compound ‘Enbrel’ was used as an aqueous solution. The dosing of the compounds was done for 12 continuous days.
The following parameters were observed and recorded daily, • 1. Body weight • 2. Articular index • 3. Paw thickness of hind limbs only, in mm using a tension free calipers • 4. Any significant observation regarding the condition of the animals.
On 13th day morning, 1 h after the compound treatment, the animals were sacrificed, blood withdrawn, and plasma collected for drug level analyses. Also, the hind limbs of all the animals were preserved for histopathological evaluations.

Test [2] has as its system IL-1β. The experiment in a line: Gene expression profile using RTQ-PCR: IL-1β. Format: cell-based, human. Particulars: 3 μM. As for the experimental part:
(§1) The effect of the compound of example 7 was measured in stimulated untreated cells from the monocytic cell line (THP-1), human monocytes and synovial cells from rheumatoid arthritis patient. The effect of the compound in the THP-1 cell line was measured in terms of gene expression and was expressed as fold changes as compared to the cell stimulated control with no drug treatment.
(§2) THP-1 cells, human monocytes and synovial cells were treated with compound of example 7 or vehicle (0.5% DMSO). Total RNA isolation using a commercial RNA extraction kit (Qiagen Corporation, Germany) The first-strand cDNA was synthesized from total RNA using first strand cDNA synthesis kit from Invitrogen Corporation (California, USA). This was followed by real time quantitative polymerase chain reaction (RTQ PCR) using gene specific primers and standard thermal program of initial denaturation at 95° C. for 5 min and cycles of 95° C. for 10 seconds, followed by 60° C. for 30 seconds (Realplex PCR machine from Eppendorf, Germany). Quantitative measurement of products made during PCR cycles was normalized against a housekeeping gene (Actin) and was used to measure the gene expression as fold changes as compared to respective control.

For test [3], the system named is GBP-1. The test is described as follows: Gene expression profile using RTQ-PCR: GBP-1. The test is classed as cell-based, human. Particulars: 3 μM, 12 h. The procedure:
as §1, §2

Test [4] relates to CEBPβ. The experiment in a line: Gene expression profile using RTQ-PCR: CEBPβ. The test is classed as cell-based, human. To be noted: 3 μM. The procedure: as §1, §2
The mark [5] stands for this setting: Human monocytes, 3 h, ± SE, N = 3.

For the compound `C/C=C/C(O)C(C)/C=C/C(=N\O)C(C)C(O)C(C)C1OC(=O)/C(OC)=C/C(C)=C/C(C)C(O)C(CC)C(O)C(C)C/C(C)=C/C=C/C1OC` (stereo not drawn) [Compound of example 7, (3Z,5E,13E,15E)-18-((5Z,6E,10E)-3,9-Dihydroxy-5-(hydroxymino)-4,8-dimethyldodeca-6,10-dien-2-yl)-9-ethyl-8,10-dihydroxy-3,17-dimethoxy-5,7,11,13-tetramethyl oxacyclooctadeca-3,5,13,15-tetraen-2-one], the severity of arthritis entry in test [1] (5.0 mg/kg CMC suspension, subcutaneously twice daily, 12 days) is “reduced the severity of arthritis”. For the same compound, the “benefit compared with Enbrel” value in test [1] (5.0 mg/kg s.c. twice daily vs Enbrel 3 mg/kg, s.c., once daily) is given as “equal to that achieved with Enbrel treatment”. The “arthritic changes of joints (histopathology observations)” value in test [1] (5 mg/kg, s.c.) is “showed protection against arthritic changes with absence of hyperplasia of synovium”. Moreover, in test [1] (compound of example 7 5 mg/kg, s.c., n=10, Enbrel 3 mg/kg, s.c., n=6, vehicle control 15.14+1.0), the “Histological score of the section of paws” value is given as 3.6+1.54. The IL-1β gene expression in test [2] (setting [5]) is −4.0 log fold change; in test [2] (Synovial cells, 12 h, N = 1) it was −0.3 log fold change; in test [2] (THP-1 cells, 12 h, ± SE, N = 3) it was −0.6 + 0.7 log fold change. For the same compound, the GBP-1 gene expression was −1.5 log fold change in test [3] (Synovial cells, N = 1) and −1.6 + 1.0 log fold change in test [3] (THP-1 cells, ± SE, N = 3). For the same compound, the CEBPβ gene expression is recorded as −2.2 + 0.3 log fold change in test [4] (setting [5]); 0.4 log fold change in test [4] (Synovial cells, 12 h, N = 1); −0.2 + 0.5 log fold change in test [4] (THP-1 cells, 12 h, ± SE, N = 3).
